Like-named read-outs stand apart in the source and are kept apart here.

Experiment [1] concerns the target T1, recombinant human CI-M6PR protein (Homo sapiens, UniProt P11717).
T1 construct: purchased R&D 6418-GR-050
Kind of experiment: Human CI-M6PR binding assay (ELISA). To be noted: for EC50: antibody conjugate; for binding affinity for M6PR, rank among the conjugates tested: matuzumab conjugates, ELISA, FIGS. 19A-19F. As to the method: Nunc black solid bottom MaxiSorp plates were allowed to incubate overnight at 4° C. coated with […] of recombinant human CI-M6PR protein (R&D, 6418-GR-050) in 50 μL PBS. The next day, coating was decanted and plates were washed 3× with PBS. Wells were blocked with 350 μL of 3% BSA-PBS for 1 hour at room temperature. […] 50 μL of diluted conjugates were added to the plate and allowed to incubate at room temperature for 2 hours. After incubation, solutions in plate were decanted and washed with 350 μL of 0.05% PBS-Tween20 three times, drying the plate each wash on a clean paper towel. 50 μL of peroxidase AffiniPure Mouse Anti-Human IgG (Jackson Immuno, 209-035-088) diluted in 3% BSA-PBS to […] was added to the plate and allowed to incubate for 1 hour at room temperature in the dark. After incubation, solutions in plate were decanted and washed with 350 μL of 0.05% PBS-Tween20 3 times, drying the plate each wash on a clean paper towel. […] 50 μL of QuantaBlu solution was added to wells and allowed to incubate for 5-10 minutes at room temperature. After incubation, plates were read on a Perkin Elmer EnVision using photometric 340 and Umbelliferone 460 filter sets for excitation and emission, respectively. Data analysis and non-linear curve-fitting was performed using GraphPad Prism.

A further experiment relates to Hep G2 cells. The experiment is described as follows: Conjugate-mediated uptake of IgG2a into HepG2 cells. It is filed as cell-based, human. Conditions: one hour incubation, FIG. 25; average loading (816), DAR4 (817), DAR4 (520). Here is the method:
The uptake of antibody conjugates of exemplary M6PR or ASGPR binding compounds was assessed in Hep G2 cells, using a method similar to that described in Example 79.

Another experiment concerns Jurkat cells. Kind of experiment: Conjugate-mediated uptake of IgG2a-Alexa488 into Jurkat cells (flow cytometry). It is filed as cell-based. Conditions: one hour incubation, FIG. 24. Here is the method:
The anti-IgG2a conjugates were bound to IgG2a-Alexa488, as follows: equal molar ratios of anti-IgG2a and IgG2a-Alexa488 were added in tissue culture media for 30 minutes at room temperature. The resulting anti-IgG2a:IgG2a antibody-Alexa488 compositions were added to Jurkat cells (100 k cells/50 ul per well, n=2), and Alexa488 fluorescence levels were measured (via Alexa488 measurement) at 1 hour and 24 hours by flow cytometry. Because Alexa488 accumulates in cells, this presents a way to measure total intracellular uptake by cells over time.

Where [2] appears, read: average loading DAR 9, FIG. 23, read-out: EC50 (nM) in M6PR binding assay.
Setting [3] is: average loading DAR 9.5, FIG. 23, read-out: EC50 (nM) in M6PR binding assay.

As to `O=C(CCCCCc1cn(CCOCCOCCOCCOCCC(=O)Oc2c(F)c(F)c(F)c(F)c2F)nn1)Nc1ccc(O[C@H]2O[C@H](CCP(=O)(O)O)[C@@H](O)[C@H](O)[C@@H]2O)cc1` [513 (I-39)], the EC50 in experiment [1] (setting [2]) came to 0.186 nM.

On to `O=C(CCOCCn1cc(CCCCNC(=S)Nc2ccc(O[C@H]3O[C@H](CCP(=O)(O)O)[C@@H](O)[C@H](O)[C@@H]3O)cc2)nn1)Oc1c(F)c(F)c(F)c(F)c1F` [519 (I-47)], for which the EC50 in experiment [1] (setting [3]) was determined as 0.266 nM.

For `O=C(CCOCCOCCOCCOCCn1cc(CCCCNC(=S)Nc2ccc(O[C@H]3O[C@H](CCP(=O)(O)O)[C@@H](O)[C@H](O)[C@@H]3O)cc2)nn1)Oc1c(F)c(F)c(F)c(F)c1F` [520 (I-7)], the EC50 worked out at 0.412 nM in experiment [1] (additional M6PR binding assays, average loading DAR 4, read-out: EC50 (nM) in M6PR binding assay); 2.6 nM in experiment [1] (average loading DAR 2, FIG. 23, read-out: EC50 (nM) in M6PR binding assay); 0.221 nM in experiment [1] (average loading DAR 4, FIG. 23, read-out: EC50 (nM) in M6PR binding assay); 0.217 nM in experiment [1] (setting [2]). In the experiment with Hep G2 cells, the “uptake into HepG2 cells (cell fluorescence versus conjugate concentration)” value is recorded as “comparable HepG2 cellular uptake”.

`O=C(CCOCCn1cc(COCCOCCOCCNC(=S)Nc2ccc(O[C@H]3O[C@H](CCP(=O)(O)O)[C@@H](O)[C@H](O)[C@@H]3O)cc2)nn1)Oc1c(F)c(F)c(F)c(F)c1F` [522 (I-49)]: the concentration giving a half-maximal response (EC50) in experiment [1] (average loading DAR 11, FIG. 23, read-out: EC50 (nM) in M6PR binding assay) was 0.227 nM.

On to `O=C(CCOCCOCCOCCOCCOCCOCCOCCOCCn1cc(CCCCNC(=S)Nc2ccc(O[C@H]3O[C@H](CCP(=O)(O)O)[C@@H](O)[C@H](O)[C@@H]3O)cc2)nn1)Oc1c(F)c(F)c(F)c(F)c1F` [526 (I-48)], for which the EC50 in experiment [1] (average loading DAR 10, FIG. 23, read-out: EC50 (nM) in M6PR binding assay) was 0.186 nM.

As for `C[C@H](NC(=O)CCCn1cc(CCCCNC(=S)Nc2ccc(O[C@H]3O[C@H](CCP(=O)(O)O)[C@@H](O)[C@H](O)[C@@H]3O)cc2)nn1)C(=O)N[C@@H](C)C(=O)N[C@@H](C)C(=O)NCCOCCOCCOCCOCCC(=O)Oc1c(F)c(F)c(F)c(F)c1F` [528 (I-51)], the EC50 is 4.44 nM in experiment [1] (EC50 (nM) in M6PR binding assay, additional M6PR binding assays, average loading DAR 2); 0.301 nM in experiment [1] (EC50 (nM) in M6PR binding assay, additional M6PR binding assays, average loading DAR 8); 0.199 nM in experiment [1] (EC50 (nM) in M6PR binding assay, average loading DAR 9.5, FIG. 23). In addition, the “uptake into Jurkat cells, average loading DAR9 versus lower average loading DAR2” value in the experiment with Jurkat cells is reported as “greater uptake”.

For `O=C(NCCCCc1cn(CCOCCOCCOCCOCCC(=O)Oc2c(F)c(F)c(F)c(F)c2F)nn1)Nc1ccc(O[C@H]2O[C@H](CCP(=O)(O)O)[C@@H](O)[C@H](O)[C@@H]2O)cc1` [529 (I-38)], in experiment [1] (setting [3]), the EC50 worked out at 0.194 nM.

Take `O=C(CCOCCOCCOCCOCCn1cc(CCCCNC(=S)Nc2ccc(O[C@H]3O[C@H](CC(C(=O)O)C(=O)O)[C@@H](O)[C@H](O)[C@@H]3O)cc2)nn1)Oc1c(F)c(F)c(F)c(F)c1F` [537 (I-66)]: the EC50 is 2.31 nM in experiment [1] (additional M6PR binding assays, average loading DAR 8, read-out: EC50 (nM) in M6PR binding assay) and 3.36 nM in experiment [1] (setting [2]).

For `O=C(CCOCCOCCOCCN(CCOCCOCCOCCn1cc(CCCCNC(=S)Nc2ccc(O[C@H]3O[C@H](CCP(=O)(O)O)[C@@H](O)[C@H](O)[C@@H]3O)cc2)nn1)CCOCCOCCOCCn1cc(CCCCNC(=S)Nc2ccc(O[C@H]3O[C@H](CCP(=O)(O)O)[C@@H](O)[C@H](O)[C@@H]3O)cc2)nn1)NCCN1C(=O)C=CC1=O` [706 (I-41)], the EC50 in experiment [1] (additional M6PR binding assays, maleimide-Cys conjugation, read-out: EC50 (nM) in M6PR binding assay) was found to be 0.271 nM.

Take `O=C(CCCn1cc(CCCCNC(=S)Nc2ccc(O[C@H]3O[C@H](CCP(=O)(O)O)[C@@H](O)[C@H](O)[C@@H]3O)cc2)nn1)N[C@@H](CCCCn1cc(CCCCNC(=S)Nc2ccc(O[C@H]3O[C@H](CCP(=O)(O)O)[C@@H](O)[C@H](O)[C@@H]3O)cc2)nn1)C(=O)N[C@@H](CCCCn1cc(CCCCNC(=S)Nc2ccc(O[C@H]3O[C@H](CCP(=O)(O)O)[C@@H](O)[C@H](O)[C@@H]3O)cc2)nn1)C(=O)N[C@@H](CCCCn1cc(CCCCNC(=S)Nc2ccc(O[C@H]3O[C@H](CCP(=O)(O)O)[C@@H](O)[C@H](O)[C@@H]3O)cc2)nn1)C(=O)NCCOCCOCCOCCOCCC(=O)Oc1c(F)c(F)c(F)c(F)c1F` [728 (I-52)]: in experiment [1] (additional M6PR binding assays, average loading DAR 6, read-out: EC50 (nM) in M6PR binding assay), the EC50 came out at 0.28 nM.

With `CC(=O)N[C@H]1[C@H](OCCCCC(=O)NCCCNC(=O)CCOCC(COCCC(=O)NCCCNC(=O)CCCCO[C@@H]2O[C@H](CO)[C@H](O)[C@H](O)[C@H]2NC(C)=O)(COCCC(=O)NCCCNC(=O)CCCCO[C@@H]2O[C@H](CO)[C@H](O)[C@H](O)[C@H]2NC(C)=O)NC(=O)CCCCCCCCCCC(=O)Oc2c(F)c(F)c(F)c(F)c2F)O[C@H](CO)[C@H](O)[C@@H]1O` [816 (ASGPR compound I-124)], the “uptake into HepG2 cells (cell fluorescence versus conjugate concentration)” value in the experiment with Hep G2 cells is “comparable HepG2 cellular uptake”.

On to `CC(=O)N[C@H]1[C@H](OCCCCC(=O)NCCCNC(=O)CCOCC(COCCC(=O)NCCCNC(=O)CCCCO[C@@H]2O[C@H](CO)[C@H](O)[C@H](O)[C@H]2NC(C)=O)(COCCC(=O)NCCCNC(=O)CCCCO[C@@H]2O[C@H](CO)[C@H](O)[C@H](O)[C@H]2NC(C)=O)NC(=O)CCCCCCCCCCCN2C(=O)C=CC2=O)O[C@H](CO)[C@H](O)[C@@H]1O` [817 (ASGPR compound I-123), N-[1,3-bis(2-{[3-(5-{[(2R,3R,4R,5R,6R)-3-acetamido-4,5-dihydroxy-6-(hydroxymethyl)oxanyl]oxy}pentanamido)propyl]carbamoyl}ethoxy)-2-[(2-{[3-(5-{[(2R,3R,4R,5R,6R)acetamido-4,5-dihydroxy-6-(hydroxymethyl)oxanyl]oxy}pentanamido)propyl]carbamoyl}ethoxy)methyl]propan-2-yl]-12-(2,5-dioxo-2,5-dihydro-1H-pyrrol-1-yl)dodecanamide], for which the “uptake into HepG2 cells (cell fluorescence versus conjugate concentration)” value in the experiment on Hep G2 cells is recorded as “comparable HepG2 cellular uptake”.

B1: Compound I-7 (d8): "matuzumab conjugates (matuzumab-Compound I-7(d4), matuzumab-Compound I-7(d8) ..." (conjugate)
heavy: QVQLVQSGAEVKKPGASVKVSCKASGYTFTSHWMHWVRQAPGQGLEWIGEFNPSNGRTNYNEKFKSKATMTVDTSTNTAYMELSSLRSEDTAVYYCASRDYDYAGRYFDYWGQGTLVTVSSASTKGPSVFPLAPSSKSTSGGTAALGCLVKDYFPEPVTVSWNSGALTSGVHTFPAVLQSSGLYSLSSVVTVPSSSLGTQTYICNVNHKPSNTKVDKKVEPKS
light: DIQMTQSPSSLSASVGDRVTITCSASSSVTYMYWYQQKPGKAPKLLIYDTSNLASGVPSRFSGSGSGTDYTFTISSLQPEDIATYYCQQWSSHIFTFGQGTKVEIKRTVAAPSVFIFPPSDEQLKSGTASVVCLLNNFYPREAKVQWKVDNALQSGNSQESVTEQDSKDSTYSLSSTLTLSKADYEKHKVYACEVTHQGLSSPVTKSFNRGE
modifications: left off: a dimerising Fc or GST
For B1, the “binding affinity for M6PR, rank among the conjugates tested” value in experiment [1] was “highest”.

B2: Compound I-11 (d4): "matuzumab conjugates (... matuzumab-Compound I-11(d4) ..." (conjugate)
heavy: QVQLVQSGAEVKKPGASVKVSCKASGYTFTSHWMHWVRQAPGQGLEWIGEFNPSNGRTNYNEKFKSKATMTVDTSTNTAYMELSSLRSEDTAVYYCASRDYDYAGRYFDYWGQGTLVTVSSASTKGPSVFPLAPSSKSTSGGTAALGCLVKDYFPEPVTVSWNSGALTSGVHTFPAVLQSSGLYSLSSVVTVPSSSLGTQTYICNVNHKPSNTKVDKKVEPKS
light: DIQMTQSPSSLSASVGDRVTITCSASSSVTYMYWYQQKPGKAPKLLIYDTSNLASGVPSRFSGSGSGTDYTFTISSLQPEDIATYYCQQWSSHIFTFGQGTKVEIKRTVAAPSVFIFPPSDEQLKSGTASVVCLLNNFYPREAKVQWKVDNALQSGNSQESVTEQDSKDSTYSLSSTLTLSKADYEKHKVYACEVTHQGLSSPVTKSFNRGE
modifications: left off: a dimerising Fc or GST
B2: the “binding affinity for M6PR, rank among the conjugates tested” value in experiment [1] was “lowest”.
